Experimental data taken from ChEMBL document CHEMBL4177722, “Small molecule inhibitors of anthrax edema factor” (Bioorg Med Chem Lett, 2018).

Key:
[1] = molecular target: Interleukin-1 receptor-associated kinase 1 (Homo sapiens) (UniProt P51617); experiment: Inhibition of human IRAK at 10 uM by ADP-Glo kinase assay
[2] = molecular target: T1, Serine/threonine-protein kinase Chk1 (Homo sapiens) (UniProt O14757); experiment: Inhibition of human CHK1 at 10 uM by ADP-Glo kinase assay
T1 sequence (whole entry): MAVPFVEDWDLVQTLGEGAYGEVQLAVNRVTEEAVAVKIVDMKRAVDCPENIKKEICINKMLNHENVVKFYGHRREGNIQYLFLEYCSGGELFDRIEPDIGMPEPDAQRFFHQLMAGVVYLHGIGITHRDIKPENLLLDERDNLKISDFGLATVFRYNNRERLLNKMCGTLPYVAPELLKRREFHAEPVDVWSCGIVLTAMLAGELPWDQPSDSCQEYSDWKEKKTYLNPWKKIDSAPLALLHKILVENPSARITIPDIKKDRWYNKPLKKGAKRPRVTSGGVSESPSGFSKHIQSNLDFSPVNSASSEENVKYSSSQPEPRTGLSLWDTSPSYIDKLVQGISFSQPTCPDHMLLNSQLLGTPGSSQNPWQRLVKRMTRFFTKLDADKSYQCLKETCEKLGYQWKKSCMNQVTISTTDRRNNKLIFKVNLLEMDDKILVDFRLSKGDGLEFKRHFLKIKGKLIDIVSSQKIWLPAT

[3] = tested on: RAW264.7; experiment: Cytotoxicity against mouse RAW264.7 cells assessed a reduction in cell viability incubated for 24 hrs in absence of 10% FBS by MTT assay; format: cell-based; settings: raw264.7, 24 h
[4] = molecular target: T2, Calcium/calmodulin-dependent protein kinase type IV (Homo sapiens) (UniProt Q16566); experiment: Inhibition of human CAMK4 at 10 uM by ADP-Glo kinase assay
T2 sequence (whole entry): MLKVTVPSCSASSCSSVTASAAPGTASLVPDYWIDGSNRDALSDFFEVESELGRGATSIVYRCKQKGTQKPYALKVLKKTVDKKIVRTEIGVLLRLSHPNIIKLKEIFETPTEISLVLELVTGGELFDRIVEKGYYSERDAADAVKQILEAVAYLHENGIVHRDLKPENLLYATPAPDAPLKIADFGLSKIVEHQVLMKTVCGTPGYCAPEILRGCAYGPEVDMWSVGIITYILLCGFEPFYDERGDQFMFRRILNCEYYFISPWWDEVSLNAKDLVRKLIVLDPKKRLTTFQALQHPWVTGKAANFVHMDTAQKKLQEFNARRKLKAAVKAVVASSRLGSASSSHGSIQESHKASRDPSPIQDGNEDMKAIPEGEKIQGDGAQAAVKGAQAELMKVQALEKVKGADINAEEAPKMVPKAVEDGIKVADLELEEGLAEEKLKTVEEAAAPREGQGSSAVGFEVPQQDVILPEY

[5] = Chemical stability in 0.1 N HCl at pH 1.2 assessed as parent compound remaining incubated for 24 hrs by LC-MS method; format: physicochemical; settings: buffer, pH 1.2, 24 h
[6] = Chemical stability in 0.1 M K2PO4 at pH 7.4 assessed as parent compound remaining incubated for 24 hrs by LC-MS method; format: physicochemical; settings: buffer, pH 7.4, 24 h
[7] = Stability in C57BL/6 mouse plasma assessed as assessed as parent compound remaining at 10 uM by LC-MS method; format: ADME, cell-free, C57B/6; settings: read-out: Stability
[8] = Drug metabolism in 0.1 M sodium tetraborate (Na2B4O7, pH 10.0) assessed as fluoro-sulphonyl group hydrolysis incubated for 24 hrs by LC-MS method; format: physicochemical; settings: pH 10, 24 h
[9] = Chemical stability in simulated gastric intestinal fluid at pH 1.7 assessed as parent compound remaining incubated for 24 hrs by LC-MS method; format: ADME, physicochemical; settings: simulated gi fluid, pH 1.7, 24 h
[10] = Chemical stability in 0.1 M sodium tetraborate (Na2B4O7, pH 10.0) assessed as parent compound remaining incubated for 24 hrs by LC-MS method; format: physicochemical; settings: 0.1 M sodium tetraborate buffer, read-out: Stability
[11] = Stability in C57BL/6 mouse plasma assessed as half life at 10 uM by LC-MS method; format: ADME, cell-free, C57B/6

Interleukin-1 receptor-associated kinase 1 (Homo sapiens), sequence (P51617 whole entry, looked up): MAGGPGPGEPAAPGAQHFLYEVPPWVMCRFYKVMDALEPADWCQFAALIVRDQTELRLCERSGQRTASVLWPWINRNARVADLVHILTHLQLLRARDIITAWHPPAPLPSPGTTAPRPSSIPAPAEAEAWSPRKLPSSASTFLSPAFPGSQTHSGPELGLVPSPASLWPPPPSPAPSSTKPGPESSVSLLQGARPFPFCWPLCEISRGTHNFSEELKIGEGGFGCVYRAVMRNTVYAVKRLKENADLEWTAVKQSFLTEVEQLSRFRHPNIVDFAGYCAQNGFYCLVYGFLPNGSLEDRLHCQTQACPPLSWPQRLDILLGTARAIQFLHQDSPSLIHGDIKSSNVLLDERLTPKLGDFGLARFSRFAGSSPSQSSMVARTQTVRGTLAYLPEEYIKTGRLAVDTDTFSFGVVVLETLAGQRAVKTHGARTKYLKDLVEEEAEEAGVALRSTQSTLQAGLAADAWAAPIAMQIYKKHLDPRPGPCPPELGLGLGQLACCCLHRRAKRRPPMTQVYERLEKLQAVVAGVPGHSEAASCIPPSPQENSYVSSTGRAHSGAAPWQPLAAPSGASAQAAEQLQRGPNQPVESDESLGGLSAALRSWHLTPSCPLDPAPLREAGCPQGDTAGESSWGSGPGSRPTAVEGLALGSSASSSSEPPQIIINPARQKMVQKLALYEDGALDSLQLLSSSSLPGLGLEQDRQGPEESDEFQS

Compound	inhibition [1]	inhibition [2]	Activity [3]	inhibition [4]	Stability [5]	Stability [6]	remaining at 10 µM [7]	Drug metabolism [8]	Stability [9]	remaining at 24 h [10]	half-life at 10 µM [11]
Cc1nc(N)c2ccn(C3CCN(C(=O)c4ccc(S(=O)(=O)F)cc4)CC3)c2n1	0%	97%	Non-Toxic	27%	–	–	–	–	–	–	–
Nc1ncnc2c1ccn2C1CCN(C(=O)c2ccc(S(=O)(=O)F)cc2)CC1	10%	18%	Non-Toxic	7%	Stable	Stable	< 5%	Metabolite_Notdetected	Stable	< 1%	37.2 min
